Experimental data reported in ChEMBL document CHEMBL4002618, “Anticomplement triterpenoids from the roots of Ilex asprella” (2017).
Calls of active or inactive are those of the source. The rule behind the calls is not given here.

Columns and labels:
Erythrocyte [1] = experiment: Anticomplement activity in sheep erythrocytes assessed as inhibition of hemolysis by classical pathway after 30 mins of compound treatment in normal human serum with C9-depleted sera; type: functional, cell-based; conditions: Ovis aries
Erythrocyte [2] = experiment: Anticomplement activity in sheep erythrocytes assessed as inhibition of hemolysis by classical pathway after 30 mins of compound treatment in normal human serum with C1q-depleted sera; type: functional, cell-based; conditions: Ovis aries
Erythrocyte [3] = experiment: Anticomplement activity in sheep erythrocytes assessed as inhibition of hemolysis by classical pathway after 30 mins of compound treatment in normal human serum with C4-depleted sera; type: functional, cell-based; conditions: Ovis aries
Erythrocyte [4] = experiment: Anticomplement activity in New Zealand White rabbit erythrocytes assessed as concentration required for 50% hemolytic inhibition by alternative pathway preincubated for 10 mins with normal human serum followed by erythrocyte addition measured after 30 mins by spectrophotometer; type: functional, Oryctolagus cuniculus
Erythrocyte [5] = experiment: Anticomplement activity in sheep erythrocytes assessed as inhibition of hemolysis by classical pathway after 30 mins of compound treatment in normal human serum with C2-depleted sera; type: functional, cell-based; conditions: Ovis aries
Erythrocyte [6] = experiment: Anticomplement activity in sheep erythrocytes assessed as inhibition of hemolysis by classical pathway after 30 mins of compound treatment in normal human serum with C5-depleted sera; type: functional, cell-based; conditions: Ovis aries
Erythrocyte [7] = experiment: Anticomplement activity in sheep erythrocytes assessed as concentration required for 50% hemolytic inhibition by classic pathway preincubated for 10 mins with guinea pig serum followed by erythrocyte addition measured after 30 mins by spectrophotometer; type: functional, Ovis aries
Erythrocyte [8] = experiment: Anticomplement activity in sheep erythrocytes assessed as inhibition of hemolysis by classical pathway after 30 mins of compound treatment in normal human serum with C3-depleted sera; type: functional, cell-based; conditions: Ovis aries

SMILES	Activity (Erythrocyte [1])	Activity (Erythrocyte [2])	Activity (Erythrocyte [3])	Activity (Erythrocyte [4])	Activity (Erythrocyte [5])	Activity (Erythrocyte [6])	Activity (Erythrocyte [7])	Activity (Erythrocyte [8])
CC1(C)CC[C@]2(C(=O)O)CC[C@]3(COC(=O)/C=C/c4ccc(O)cc4)C(=CC[C@@H]4[C@@]5(C)CC[C@H](OC(=O)/C=C/c6ccc(O)cc6)C(C)(C)[C@@H]5CC[C@]43C)[C@@H]2C1	inactive	Active	Active	0.159 mg/mL	inactive	Active	0.072 mg/mL	Active
C=C1[C@@H](O)[C@H](O)C[C@]2(C)[C@H]3CC=C4[C@@H]5CC(C)(C)CC[C@]5(C(=O)O)CC[C@@]4(C)[C@]3(C)CC[C@@H]12	Active	Active		0.308 mg/mL	Active		0.09 mg/mL	
